According to patent US8980846B2, “Composition containing styraxlignolide A or the aglycone thereof as an active ingredient for preventing or treating asthma” (Korea Research Institute of Bioscience and Biotechnology, priority 2010, dated 2015):

What was measured:
[1] = Body weight in asthma-induced mice; assay type: in vivo, Balb/c female mice; conditions: 3 mg/kg PO 1 hour prior to ovalbumin inhalation
Procedure: (§1) To prepare bronchial asthma-induced experimental animals, six-week-old Balb/c female mice of mean weight about 20 g were used. After one week of adaptation, individuals which had no observed abnormality on a basic physical examination were targeted. 200 μL of phosphate buffered saline (PBS)(pH 7.4) in which 2 mg of aluminum hydroxide (A8222, Sigma, St. Louis, Mo.) and 20 μg of ovalbumin (A5503, Sigma, St. Louis, Mo.) were suspended was injected into the peritoneal cavity at two-week intervals to result in sensitization. On days 28 to 30 after the first intraperitoneal administration of ovalbumin, inhalation challenge was performed for 30 min with 1% ovalbumin using an ultrasonic atomizer. 24 hours after the last antigen administration, airway hyperresponsiveness was measured. After 24 hours, a lethal dose of pentobarbital (Entobar®, Hanlim Pharm Co., Ltd.) was administered, body weight measurement and bronchotomy were performed, and bronchoalveolar lavage was performed with a total 1.2 mL of physiological saline, and then, samples were collected. […] Eight white mice were used for each group. Experimental groups for homoegonol were a group (hE7.5) in which animals were orally administered with 7.5 mg/kg homoegonol 1 hour prior to ovalbumin inhalation, a group (hE15) in which animals were orally administered with 15 mg/kg homoegonol 1 hour prior to ovalbumin inhalation, and a group (hE30) in which animals were orally administered with 30 mg/kg homoegonol 1 hour prior to ovalbumin inhalation, and five white mice were used for each group.
(§2) To determine an effect of styraxlignolide A on reduction in body weight in asthma-induced mice, body weight of each mouse prepared in Example 2 was measured. For statistical analyses for all measurements, means and standard errors (mean±S.E.) according to a number of variables were calculated, and comparison between each group was analyzed by performing a Mann-whitney U test using SPSS 10.0. Statically significance was accepted at p<0.05.
as §2, with “homoegonol” for “styraxlignolide A”

[2] = test system: airway hyperresponsiveness; experiment: Airway hyperresponsiveness, Penh by one chamber plethysmography after methacholine inhalation; assay type: in vivo, Balb/c female mice; conditions: asthma-induced mice, homoegonol study, 3 mg/kg PO
Procedure: as §1, with “Experimental groups for homoegonol were a group (hE7.5) in which animals were orally administered with 7.5 mg/kg homoegonol 1 hour prior to ovalbumin inhalation, a group (hE15) in which animals were orally administered with 15 mg/kg homoegonol 1 hour prior to ovalbumin inhalation, and a group (hE30) in which animals were orally administered with 30 mg/kg homoegonol 1 hour prior to ovalbumin inhalation, and five white mice were used for each group.” left out
The effect of styraxlignolide A on airway hyperresponsiveness caused by asthma occurrence was examined by measuring airway resistance with one chamber plethysmography (All medicus, Seoul, Republic of Korea) and degree of airway resistance was assessed by measuring Penh (enhanced pause) values. The baseline value was measured under a normal respiratory condition, and then, PBS was inhaled using an ultrasonic atomizer for 3 min, and Penh values were measured over 3 min. […] Louis, Mo.) which is used in general methods for diagnosis of bronchial asthma were inhaled and Penh values were measured. Penh value is shown in the following Equation 1, and the resulting Penh value was expressed as a percent increase in Penh after inhalation of each concentration of methacholine. The baseline Penh (saline challenge) was expressed as 100%.
Te: expiratory time (sec), the time from inspiration to the next inspiration
RT: relaxation time, the elapsed time between the beginning of the expiration and the moment when the remaining 30% of the tidal volume has been reached during expiration
PEF: Peak expiration flow
PIF: Peak inspiration flow
To examine the effect of homoegonol on airway hyperresponsiveness caused by asthma occurrence, Penh value was measured according to the method in <Experimental Example 2>.

[3] = test system: inflammatory cells in bronchoalveolar lavage fluid; experiment: Inflammatory cell counts in bronchoalveolar lavage fluid (Diff-Quick staining); assay type: in vivo, Balb/c female mice; conditions: asthma-induced mice
Procedure: as §1
Bronchoalveolar lavage fluid was collected from individuals of each experimental group in <Example 2> and right after the collection, fluid was stained with trypan blue. The number of total cells except dead cells was calculated using a hemocytometer. Then, Diff-Quick staining (Sysmex, Swizerland) was performed after smear preparation with Cytospin II, and eosinophils and other inflammatory cells were differentially counted.
To examine the effect of homoegonol on asthma, variation in the numbers of asthma-related inflammatory cells was measured according to the method in <Experimental Example 3>.

[4] = test system: alanine aminotransferase (ALT) and aspartate aminotransferase (AST) in serum; assay type: in vivo; conditions: mouse, in vivo, po, 3 mg/kg
Procedure: as §1
To examine liver toxicity of styraxlignolide A, a commercially available ELISA kit (BECKMAN Coulter, Inc., Fullerton, Calif., USA) was used to measure alanine aminotransferase (ALT) and aspartate aminotransferase (AST) in serum.

goblet cells [5] = experiment: Ratio of goblet cells to bronchial epithelial cells (PAS staining); assay type: in vivo, Balb/c female mice; conditions: asthma-induced mice, styraxlignolide A study; 3 mg/kg PO 1 hour prior to ovalbumin inhalation
Procedure: as §1
Lungs removed from each individual were subjected to conventional formalin fixation and paraffin embedding, and permanent section slides of 4 μm thickness were prepared, and periodic acid Schiff (PAS) staining was performed to determine goblet cells. Proliferation of goblet cells was assessed by measuring the ratio of goblet cells to bronchial epithelial cells.
In accordance with the method in <Experimental Example 7-2>, the ratio of goblet cells which were determined by periodic acid-Schiff staining to bronchial epithelial cells were measured to assess proliferation of goblet cells.

[6] = test system: fibrosis in subsegmental bronchi; experiment: Fibrosis in subsegmental bronchi (Masson's trichrome staining); assay type: in vivo, Balb/c female mice; conditions: asthma-induced mice, styraxlignolide A study; 3 mg/kg PO 1 hour prior to ovalbumin inhalation
Procedure: as §1

TGF-β1 = TGF-β1 in bronchoalveolar lavage fluid; assay type: in vivo, Balb/c female mice; conditions: asthma-induced mice, homoegonol study; 3 mg/kg PO
Procedure: as §1
(§3) To examine the effect of homoegonol on airway remodeling, generation of TGF-β1 and IL-17 in bronchoalveolar lavage fluid was measured.

IL-17 = IL-17 in bronchoalveolar lavage fluid; assay type: in vivo, Balb/c female mice; conditions: asthma-induced mice, homoegonol study; 3 mg/kg PO
Procedure: as §1, §3

[7] = test system: inflammatory cells in bronchoalveolar lavage fluid; experiment: Inflammatory cell counts in bronchoalveolar lavage fluid (Diff-Quick staining); assay type: in vivo, Balb/c female mice; conditions: asthma-induced mice; remark: listed apart in the source
ovalbumin-specific IgE = experiment: IgE levels in serum and bronchoalveolar lavage fluid (ELISA); assay type: in vivo, Balb/c female mice; conditions: asthma-induced mice, homoegonol study, 3 mg/kg PO
[8] = test system: inflammatory cells in the airway mucosa; experiment: Inflammatory cell infiltration in airway mucosa, inflammatory index (H&E staining); assay type: in vivo, Balb/c female mice; conditions: asthma-induced mice, scale 0-4
goblet cells [9] = experiment: Ratio of goblet cells to bronchial epithelial cells (PAS staining); assay type: in vivo, Balb/c female mice; conditions: asthma-induced mice, homoegonol study, 3 mg/kg PO
[10] = styraxlignolide A study, 3 mg/kg PO 1 hour prior to ovalbumin inhalation
[11] = homoegonol study, 3 mg/kg PO, bronchoalveolar lavage fluid, 3 mg/kg
[12] = homoegonol study, 3 mg/kg PO, 3 mg/kg

## C[C@@H]1C[C@H]2[C@@H]3CCC4=CC(=O)C=C[C@]4(C)[C@@]3(F)[C@@H](O)C[C@]2(C)[C@@]1(O)C(=O)CO [DEXA, dexamethasone]
[1]; homoegonol study
  body weight: 19.98 ± 0.39 g
[1]; styraxlignolide A study
  body weight: 20.49 ± 0.29 g
[2]; methacholine 0 mg/ml
  Penh values: 0.4407 ± 0.0422
[2]; methacholine 12.5 mg/ml
  Penh values: 0.7768 ± 0.1475
[2]; methacholine 25 mg/ml
  Penh values: 0.8900 ± 0.1619
[2]; methacholine 50 mg/ml
  Penh values: 1.1036 ± 0.4048
[3]; homoegonol study, 3 mg/kg PO, bronchoalveolar lavage fluid
  Number of cells, Other inflammatory cells: 18.72 ± 2.2919 ×10^3 cells/mouse
[3]; [10]
  numbers of eosinophils in bronchoalveolar lavage fluid: 41.88±9.08
[4]
  serum ALT: 274.67±12.12 IU/L
  serum AST: 369.33±31.27 IU/L
Goblet cells [5]
  ratio of goblet cells to bronchiolar epithelial cells: 34.96±6.86%
[6]
  area of a fibrosis stained region per 100 μm of a basement membrane perimeter: 639.59±106.96 μm^2
TGF-β1
  TGF-β1 concentrations in bronchoalveolar lavage fluid: 159.2813 ± 12.9548 pg/mL
IL-17
  IL-17 concentrations in bronchoalveolar lavage fluid: 48.8409 ± 4.3738 pg/mL
[7]; [11]
  Number of cells, Eosinophils: 1.32±0.49 ×10^3 cells/mouse
  Number of cells, Total inflammatory cells: 20.04±4.7744 ×10^3 cells/mouse
[7]; [10]
  numbers of total inflammatory cells in bronchoalveolar lavage fluid: 153.48±19.69
ovalbumin-specific IgE; bronchoalveolar lavage fluid
  Total IgE level in bronchoalveolar lavage fluid: 24.3617 ± 4.8149 ng/mL
ovalbumin-specific IgE; serum, Table 2
  Total serum IgE level: 9.14 ± 2.0591 µg/mL
[8]; [12]
  Inflammatory index, peribronchiolar: 0.78±0.1315
  Inflammatory index, perivascular: 0.44±0.1571
[8]; [10]
  peribronchiolar inflammatory index: 1.46±0.26
Goblet cells [9]
  Goblet cells %/bronchial epithelial cell unit: 18.7828±5.9397%
